Source: patent publication EP1572665B1, “1-N-PHENYLAMINO-1H-IMIDAZOLE DERIVATIVES AS AROMATASE INHIBITORS” (LABORATOIRE THERAMEX, priority 2002, dated 2004)
Where a name gives a salt, the structure may show the parent alone.

Experiments:
human aromatase = molecular target: T1, human aromatase (Homo sapiens, UniProt P11511); test: Inhibition of human aromatase in vitro in JEG-3 cells (3H-water release from 1β-3H-androstenedione); type: cell-based; conditions: JEG-3 cell line; 1β-3H-androstenedione 10 nM; 2 hours incubation; mean ± sem
T1 construct: The JEG-3 cell line, derived from a human placental choriocarcinoma, is intrinsically very rich in human aromatase; endogenous in cells; host or cells: JEG-3 (human placental choriocarcinoma)
T1 sequence (P11511 1-503): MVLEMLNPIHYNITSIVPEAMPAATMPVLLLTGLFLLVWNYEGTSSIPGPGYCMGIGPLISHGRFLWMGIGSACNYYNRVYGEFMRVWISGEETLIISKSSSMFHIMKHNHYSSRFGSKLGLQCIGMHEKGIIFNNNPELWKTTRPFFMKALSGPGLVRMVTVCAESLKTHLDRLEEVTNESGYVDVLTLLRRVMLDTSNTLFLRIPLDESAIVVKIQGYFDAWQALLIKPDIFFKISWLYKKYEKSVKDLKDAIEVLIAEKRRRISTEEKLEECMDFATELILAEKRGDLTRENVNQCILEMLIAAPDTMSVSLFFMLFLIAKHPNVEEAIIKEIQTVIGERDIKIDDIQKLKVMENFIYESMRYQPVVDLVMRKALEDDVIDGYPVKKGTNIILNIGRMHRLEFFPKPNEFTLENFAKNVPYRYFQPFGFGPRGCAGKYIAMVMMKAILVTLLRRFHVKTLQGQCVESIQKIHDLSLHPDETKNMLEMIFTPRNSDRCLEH
Method: Stocks of JEG-3 cells are grown up to 80 % of confluence as monolayers in plastic flasks in minimum Eagle's medium with 1 g/l glucose and 10 % decomplemented fetal calf serum at pH 7.4 and 37° C, under a 5 % CO2 atmosphere. Then, 24 hours before aromatase activity measurement, JEG-3 cells are distributed for seeding in 96-well microplates (60,000 to 100,000 viable cells in 100 µl of culture medium per well) ; 24 hours later, microplates are rinsed and fresh medium containing the radioactive aromatase substrate (1β-^3H-androstenedione, 10 nM) is added together with test compounds dissolved with 1 % dimethylsulfoxide in a test concentration range between 10^-11 and 10^-4 M in a total volume of 150 µl.
Two hours after the beginning of the incubation, 100 µl of the supernatants are transferred to homologous new 96-well microplates. A solution of dextran-coated charcoal (1 %) is added in each well (100 µl/well) ; after standing for 10 minutes on ice, microplates are centrifuged (1500 g) for 10 more minutes at 4° C. All steroids, including the radioactive substrate and the newly biosynthesized estrogens, are trapped complexed by the charcoal ; only ^3H-water specifically formed during aromatisation of 1β-^3H-androstenedione, involving a specific oxidative step removing the 1β-^3H, remains in the supernatant at this stage. […]

aromatase = molecular target: T2, aromatase (Rattus norvegicus, UniProt P22443); test: Inhibition of aromatase in vivo (inhibition of the preovulatory surge of plasma estradiol levels); conditions: adult female Wistar rats, single oral administration of 10 micrograms/kg on diestrus, plasma estradiol 24 hours later, vs vehicle controls, n = number of independent studies; for inhibition at 0.01 mg/kg: rat, read-out: % inhibition at 10 µg/kg
T2 construct: In the rat, estradiol is physiologically synthesized to high circulating levels; from tissue; host or cells: whole animal: adult female Wistar rats (endogenous aromatase)
T2 sequence (P22443 1-508): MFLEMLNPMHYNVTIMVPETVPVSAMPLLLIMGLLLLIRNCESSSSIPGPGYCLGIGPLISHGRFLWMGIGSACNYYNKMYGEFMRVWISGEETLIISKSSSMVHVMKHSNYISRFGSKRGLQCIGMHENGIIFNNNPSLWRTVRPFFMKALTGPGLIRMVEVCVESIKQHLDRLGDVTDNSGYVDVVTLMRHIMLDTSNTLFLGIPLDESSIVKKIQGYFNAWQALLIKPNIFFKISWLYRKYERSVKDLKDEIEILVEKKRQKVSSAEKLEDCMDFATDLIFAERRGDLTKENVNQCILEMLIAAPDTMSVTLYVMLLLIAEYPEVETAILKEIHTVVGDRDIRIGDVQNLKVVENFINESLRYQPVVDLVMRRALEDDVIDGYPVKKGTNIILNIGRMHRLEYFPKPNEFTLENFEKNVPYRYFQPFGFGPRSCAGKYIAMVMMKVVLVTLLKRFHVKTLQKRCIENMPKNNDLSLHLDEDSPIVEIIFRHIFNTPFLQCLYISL
From the text: Aromatase is the steroidogenic enzyme responsible for the biosynthesis of estradiol, the main female sex hormone among estrogens. In the rat, estradiol is physiologically synthesized to high circulating levels in a particular period during the 4-day estrous cycle : it is the so-called preovulatory surge taking place in the afternoon of proestrus, just before ovulation which occurs during the night between proestrous and estrous phases. A sensitive physiological model for in vivo evaluation of aromatase inhibition was developped based on the inhibition of this preovulatory surge of estradiol levels.
Adult female Wistar rats are monitored for regular 4-day estrous cyclicity by daily vaginal smear examination; after 2 or 3 regular cycles, animals are treated by a single oral administration of the very low discriminative dose of 10 micrograms/kg in a 4 ml/kg volume around 04:00 PM on diestrus, i.e. on the day before proestrus. Precisely 24 hours later, aortic blood samples are drawn under gaseous anesthesia. Plasma estradiol levels are measured by radioimmunoassay with commercially available kits (Diagnostic Systems Laboratories, Webster, Texas, U. S. A.). Control and test groups usually consist of 7 to 10 rats, depending on the number of regularly cycling rats to distribute among study groups. Results are expressed in pg/ml and then in % of inhibition taking the estradiol levels of control animals receiving only the oral vehicle as the 100 % reference to allow comparisons between different independent studies, since the preovulatory surge level may vary in each control group from one study to another between about 25 to 40 pg/ml. Table B : Inhibition of aromatase in vivo

Row | SMILES | IC50 (human aromatase) | % inhibition at 10 µg/kg (aromatase) | inhibition at 0.01 mg/kg (aromatase)
1 | N#Cc1ccc(N(Cc2ccc(Br)cc2)n2cnnc2)cc1 [YM 511, reference compound] | 0.3 ± 0.04 nM | 35% | –
2 | N#Cc1ccc(N(Cc2ccc(F)c(F)c2)n2ccnc2)cc1 [Example 17, 4-[N-(1H-imidazol-l-yl)-N-(3,4-difluorophenylmethyl)amino]benzonitrile] | – | – | 60%
3 | N#Cc1ccc(N(Cc2ccc(F)cc2)n2ccnc2)cc1 [Example 14, 4-[N-(1H-imidazol-1-yl)-N-(4-fluorophenylmethyl)amino]benzonitrile, hydrochloride hemihydrate] | – | – | 49 to 57%
4 | N#Cc1ccc(N(Cc2ccc(Cl)cc2)n2ccnc2)cc1 [Example 7, 4-[N-(1H-imidazol-1-yl)-N-(4-chlorophenylmethyl)amino]benzonitrile, hydrochloride] | – | – | 47%
5 | N#Cc1ccc(N(Cc2ccc(C(F)(F)F)cc2)n2ccnc2)cc1 [Example 6, 4-[N-(1H-imidazol-1-yl)-N-(4-trifluoromethylphenylmethyl)amino]-benzonitrile] | – | – | 57%
6 | N#Cc1ccc(CN(c2ccc(C#N)cc2)n2ccnc2)cc1 [Example 11, 4-[N-(1H-imidazol-1-yl)-N-(4-cyanophenylmethyl)amino]benzonitrile, hydrochloride] | – | – | 57 to 59%
7 | CC(C)(C#N)c1cc(Cn2cncn2)cc(C(C)(C)C#N)c1 [Anastrozole, anastrozole, reference compound] | – | – | 18 to 33%
